Data as given in the NIST ThermoML archive (doi:10.1016/j.jct.2018.11.014).
Numbers after ± are expanded uncertainties.

Assay: molar heat capacity at constant pressure
Settings: 101.33 kPa, Crystal, Vacuum adiabatic calorimetry

O=C(CO)[C@@H](O)[C@H](O)[C@H](O)CO [D-fructose]
Settings	molar heat capacity at constant pressure [J/K/mol]
10 K	0.91 ± 0.02
14.06 K	2.815 ± 0.037
14.48 K	3.13 ± 0.04
14.92 K	3.379 ± 0.043
15.36 K	3.634 ± 0.045
15.81 K	3.919 ± 0.049
16.27 K	4.218 ± 0.052
16.77 K	4.66 ± 0.056
17.29 K	5.05 ± 0.06
17.75 K	5.334 ± 0.063
18.24 K	5.753 ± 0.067
18.76 K	6.186 ± 0.072
19.31 K	6.585 ± 0.076
19.89 K	7.065 ± 0.081
20 K	7.19 ± 0.08
20.47 K	7.626 ± 0.086
21.03 K	8.082 ± 0.091
21.55 K	8.514 ± 0.095
22.09 K	9.015 ± 0.1
22.64 K	9.566 ± 0.11
23.22 K	10.1 ± 0.11
23.84 K	10.61 ± 0.12
24.41 K	11.21 ± 0.12
24.96 K	11.67 ± 0.13
25.84 K	12.67 ± 0.14
26.71 K	13.5 ± 0.14
27.31 K	14.07 ± 0.15
28.19 K	14.91 ± 0.16
29.03 K	15.7 ± 0.17
29.58 K	16.16 ± 0.17
30 K	16.66 ± 0.18
30.14 K	16.84 ± 0.18
30.73 K	17.43 ± 0.18
31.35 K	18.05 ± 0.19
31.98 K	18.53 ± 0.19
32.62 K	19.19 ± 0.2
33.28 K	19.89 ± 0.21
33.96 K	20.59 ± 0.21
34.65 K	21.26 ± 0.22
35.36 K	21.95 ± 0.23
36.07 K	22.67 ± 0.23
36.78 K	23.42 ± 0.24
37.5 K	24.11 ± 0.25
38.21 K	24.83 ± 0.26
38.91 K	25.52 ± 0.26
39.6 K	26.21 ± 0.27
40 K	26.59 ± 0.27
40.28 K	26.89 ± 0.28
40.99 K	27.59 ± 0.28
41.73 K	28.3 ± 0.29
42.48 K	29.02 ± 0.3
43.26 K	29.78 ± 0.31
44.03 K	30.54 ± 0.31
44.8 K	31.29 ± 0.32
45.6 K	32.07 ± 0.33
46.41 K	32.85 ± 0.34
47.23 K	33.62 ± 0.34
48.05 K	34.43 ± 0.35
48.87 K	35.18 ± 0.36
49.66 K	35.98 ± 0.37
50 K	36.27 ± 0.37
50.46 K	36.72 ± 0.38
51.3 K	37.5 ± 0.38
52.17 K	38.33 ± 0.39
53.08 K	39.16 ± 0.4
54 K	40.03 ± 0.41
54.92 K	40.88 ± 0.42
55.87 K	41.75 ± 0.43
56.84 K	42.65 ± 0.44
57.8 K	43.54 ± 0.45
58.75 K	44.39 ± 0.45
59.68 K	45.25 ± 0.46
60 K	45.54 ± 0.47
60.61 K	46.09 ± 0.47
61.55 K	46.94 ± 0.48
62.48 K	47.76 ± 0.49
63.4 K	48.61 ± 0.5
64.31 K	49.43 ± 0.5
65.22 K	50.22 ± 0.51
66.18 K	51.08 ± 0.52
67.16 K	51.94 ± 0.53
68.22 K	52.9 ± 0.54
69.33 K	53.88 ± 0.55
70 K	54.46 ± 0.55
70.43 K	54.83 ± 0.56
71.5 K	55.79 ± 0.57
72.63 K	56.77 ± 0.58
73.81 K	57.78 ± 0.59
74.97 K	58.8 ± 0.6
76.11 K	59.77 ± 0.61
77.23 K	60.74 ± 0.62
78.4 K	61.72 ± 0.63
79.61 K	62.76 ± 0.64
80 K	63.1 ± 0.64
80.81 K	63.77 ± 0.65
81.98 K	64.8 ± 0.66
83.14 K	65.76 ± 0.67
84.34 K	66.77 ± 0.68
85.59 K	67.84 ± 0.69
86.82 K	68.83 ± 0.7
88.03 K	69.88 ± 0.71
89.22 K	70.89 ± 0.72
90 K	71.52 ± 0.74
90.46 K	71.89 ± 0.74
91.74 K	72.99 ± 0.76
93 K	73.99 ± 0.77
94.24 K	75.03 ± 0.78
95.47 K	76.03 ± 0.79
96.74 K	77.1 ± 0.8
98.05 K	78.13 ± 0.81
99.34 K	79.2 ± 0.82
100 K	79.73 ± 0.82
100.61 K	80.23 ± 0.83
101.88 K	81.25 ± 0.84
103.17 K	82.3 ± 0.85
104.51 K	83.38 ± 0.86
105.83 K	84.42 ± 0.87
107.14 K	85.5 ± 0.88
108.44 K	86.51 ± 0.89
109.77 K	87.55 ± 0.9
110 K	87.77 ± 0.9
111.13 K	88.69 ± 0.91
112.49 K	89.72 ± 0.92
113.83 K	90.79 ± 0.93
115.15 K	91.82 ± 0.94
116.54 K	92.94 ± 0.95
118 K	94.07 ± 0.96
119.43 K	95.21 ± 0.97
120 K	95.65 ± 0.98
120.86 K	96.29 ± 0.99
122.27 K	97.42 ± 1
123.72 K	98.53 ± 1
125.19 K	99.73 ± 1
126.66 K	100.86 ± 1
128.15 K	101.99 ± 1
129.65 K	103.12 ± 1.1
130 K	103.4 ± 1.1
131.18 K	104.32 ± 1.1
132.78 K	105.56 ± 1.1
134.41 K	106.79 ± 1.1
136.01 K	107.97 ± 1.1
137.61 K	109.25 ± 1.1
139.24 K	110.5 ± 1.1
140 K	111.05 ± 1.1
140.9 K	111.75 ± 1.1
142.55 K	112.96 ± 1.1
144.18 K	114.21 ± 1.2
145.81 K	115.47 ± 1.2
147.46 K	116.73 ± 1.2
149.19 K	117.96 ± 1.2
150 K	118.61 ± 1.2
150.94 K	119.3 ± 1.2
152.67 K	120.61 ± 1.2
154.39 K	121.92 ± 1.2
156.15 K	123.22 ± 1.2
157.94 K	124.55 ± 1.3
159.71 K	125.9 ± 1.3
160 K	126.11 ± 1.3
161.48 K	127.16 ± 1.3
163.23 K	128.53 ± 1.3
165.01 K	129.85 ± 1.3
166.83 K	131.22 ± 1.3
168.63 K	132.53 ± 1.4
170 K	133.55 ± 1.4
170.42 K	133.87 ± 1.4
172.26 K	135.21 ± 1.4
174.19 K	136.66 ± 1.4
176.16 K	138.12 ± 1.4
178.11 K	139.54 ± 1.4
180 K	140.95 ± 1.4
180.05 K	140.98 ± 1.4
181.97 K	142.44 ± 1.4
183.93 K	143.86 ± 1.5
185.92 K	145.37 ± 1.5
187.9 K	146.78 ± 1.5
189.86 K	148.24 ± 1.5
190 K	148.33 ± 1.5
191.82 K	149.62 ± 1.5
193.8 K	151.13 ± 1.5
195.89 K	152.65 ± 1.6
198.03 K	154.23 ± 1.6
200 K	155.71 ± 1.6
200.16 K	155.79 ± 1.6
202.27 K	157.38 ± 1.6
204.41 K	158.97 ± 1.6
206.59 K	160.59 ± 1.6
208.75 K	162.27 ± 1.6
210 K	163.12 ± 1.6
210.91 K	163.79 ± 1.7
213.05 K	165.43 ± 1.7
215.22 K	166.88 ± 1.7
217.41 K	168.61 ± 1.7
219.6 K	170.28 ± 1.7
220 K	170.57 ± 1.7
221.78 K	172.01 ± 1.7
223.94 K	173.59 ± 1.8
226.14 K	175.1 ± 1.8
228.44 K	176.89 ± 1.8
230 K	178.09 ± 1.8
230.8 K	178.65 ± 1.8
233.16 K	180.52 ± 1.8
235.5 K	182.33 ± 1.8
237.87 K	184.07 ± 1.9
240 K	185.67 ± 1.9
240.27 K	185.87 ± 1.9
242.65 K	187.7 ± 1.9
245.03 K	189.43 ± 1.9
247.39 K	191.32 ± 1.9
249.78 K	193.01 ± 1.9
250 K	193.28 ± 1.9
252.2 K	194.95 ± 2
254.6 K	196.74 ± 2
257 K	198.58 ± 2
259.38 K	200.5 ± 2
260 K	200.91 ± 2
261.79 K	202.31 ± 2
264.29 K	204.15 ± 2.1
266.82 K	206.25 ± 2.1
269.35 K	208.09 ± 2.1
270 K	208.52 ± 2.1
271.87 K	210.03 ± 2.1
274.41 K	211.71 ± 2.1
276.98 K	213.84 ± 2.2
279.54 K	215.75 ± 2.2
280 K	216.17 ± 2.2
282.08 K	217.72 ± 2.2
284.61 K	219.77 ± 2.2
287.17 K	221.78 ± 2.2
289.76 K	223.86 ± 2.3
290 K	224.03 ± 2.3
292.33 K	225.93 ± 2.3
294.92 K	227.98 ± 2.3
297.52 K	230.08 ± 2.3
298.15 K	230.55 ± 2.3
300 K	232.04 ± 2.3
300.15 K	232.18 ± 2.3
302.81 K	234.38 ± 2.4
305.45 K	236.46 ± 2.4
308.08 K	238.4 ± 2.4
310 K	240.14 ± 2.4
310.7 K	240.73 ± 2.4
313.34 K	242.98 ± 2.5
316 K	244.99 ± 2.5
318.66 K	247.19 ± 2.5
320 K	248.27 ± 2.5
321.3 K	249.35 ± 2.5
323.93 K	251.32 ± 2.5
326.58 K	253.53 ± 2.6
329.26 K	255.9 ± 2.6
330 K	256.36 ± 2.6
